Marks after values point to notes of the source that are not given here.
Experiments:
[1] = test system: isolated Langendorff-perfused rat hearts; test: Ex vivo Langendorff-perfused rat heart, cardiac performance; details: for ∆% +dP/dtmax / ∆% LVDP / ∆% −dP/dtmax: increase vs. control; for LVDP: isolated rat heart, mean ± SD, n = 6
Procedure: The cardiac contractility and safety of prodrugs 3–5 were evaluated on the myocardium in normal isolated rat hearts with LZDO as a positive control. Prodrugs 3–5 exerted positive inotropic effects in a dose-dependent manner. The increased rate in left ventricular developed pressure (LVDP, accepted as contractile force), +dP/dtmax (used as an index of contractility), the maximum rate of pressure decrease of the left ventricle ([…], used as an index of diastolic function) and the heart rate (HR, used as an index of heart muscle oxygen consumption) of these compounds vs. control are listed in Table 1.
All commercial reagents and solvents were used without further purification unless otherwise specified. Melting points were determined using a model Buchi B-450 apparatus. ESI-MS were recorded on a TOF mass spectrometer (Applies-Biosystem Mariner). IR spectra were acquired by using a THERMO IR spectrometer Model Nicolet-100. ^1H- and ^13C-NMR spectra (500/125 MHz) were recorded on a Bruker Advance 500 spectrophotometer. Mass spectra were recorded on a ZAB-HS mass spectrometer and are reported as m/z values. HPLC analysis was conducted on a Waters 2695 HPLC instrument equipped with a UV detector (model 2489). LZDO and prodrugs 3–5 were analysed by HPLC, and their purity was confirmed to be greater than 98.0%. In vitro metabolic stability analysis was conducted by a HPLC method, using stock standard solutions of LZDO and prodrugs that were prepared in water at a concentration of 30 mM. The positive inotropic effects on the myocardium of LZDO and prodrugs 3–5 in vitro were evaluated on Langendorff-perfused hearts isolated from normal Sprague-Dawley rats. A HPLC method was applied to measure the rat plasma concentrations of LZDO and prodrug 3 after intragastric administration of prodrug 3 in the rats.
Sprague-Dawley adult male rats weighing 260–320 g were anaesthetised by intraperitoneal administration of 20% urethane (1.2 g/kg). The hearts were quickly removed and placed into an ice-cold modified buffer until contractions ceased. The heart was cleaned of surrounding tissues, mounted on the aortic cannula of the Langendorff perfusion system apparatus, and perfused with oxygenated buffer (mM): NaCl 117, KCl 5.7, CaCl2 1.8, MgCl2 1.7, NaHCO3 4.4, NaH2PO4 1.5, HEPES 20 and glucose 11. The buffer was equilibrated with 95% O2 and 5% CO2 and adjusted to pH 7.4 with NaOH before it entered the heart. An epicardial electrogram was registered using two stainless steel electrodes, one attached to the apex of the heart and the other to the aortic cannula. To obtain an isovolumetrically beating preparation, a latex balloon filled with water and connected by a catheter to a transducer was inserted through the left atrium into the left ventricle and inflated to provide an end-diastolic pressure between 8 and 12 mm Hg. Before each experimental protocol was initiated, the isolated hearts were set at a mean arterial pressure of 60–80 mm Hg and allowed to stabilise at 37 °C for 40–60 min. The isolated rat hearts were then perfused in sequence with 1, 10, and 100 μM of LZDO and prodrugs 3–5 in each group. A RM6240B/C four channel physiological recording instrument (Chengdu Instrument Factory, Chengdu, China) was used for continuous recording of LVSP, LVEDP, HR (derived from electrogram), +dP/dtmax and −dP/dtmax throughout the experiments. The criteria for established stability were LVDP > 50 mmHg, +dP/dtmax > 1,600 mmHg·s^−1, heart rate > 180 beats·min^−1 and normal sinus rhythm. The hearts were not studied if they had weak contractility (+dP/dtmax < 1,600 mmHg·s^−1) and severe arrhythmia. Diastolic balloon pressure was maintained at 8 mmHg. LVDP was calculated as the difference between the systolic and diastolic pressures. The results are expressed as the mean value of hemodynamic variables (n = 6). Statistical analysis was performed using SPSS for Windows (version 13.0). Data were analyzed by One-way ANOVA. […]

[2] = Metabolic stability and formation of parent compound in rat liver microsomes; type: in vitro ADME; details: NADPH, 37 °C, up to 3 h
Procedure: Analysis was performed by using a Waters Alliance HPLC system (2695 pump, and 2489 PDA detector) with the following chromatographic parameters: wavelength, 278 nm; injection volume, 20 μL; run time, 20 min. The chromatographic separation was performed on an Phecda C18 (4.6 mm × 250 mm, 5 μm) column with a gradient elution of methanol and deionized water. Flow rate was 1.0 mL/min at 30 °C.
Rat liver microsomes were prepared in house by a previously published method and used immediately in the experiments. Protein concentrations were determined by a Lowry protein assay.
Rat liver microsomes (2.0 mg/mL protein concentration), NADPH (1.0 mM solution, Sigma, Shanghai, China), Tris-HCl buffer (50 mM, pH 7.4, Sigma, Shanghai, China), test compound in aqueous solution (30 mM, 20 μL).
Tris-HCl buffer (780 μL), 1.0 mM NADPH solution (100 μL), and 100 μL of rat liver microsomes were mixed and vortexed at 37 °C for 5 min. To this mixture, 30 mM drug in aqueous solution (20 μL) was injected and vortexed well. Sample (100 μL) was immediately taken out (0 min) and transferred to the centrifuge tube containing ice cold dissolvent (ethanol-ethyl acetate = 1:4 v/v, 1 mL). […] The percentage of prodrug remaining was calculated according to the following equation: % remaining = peak area at respective time (min)/peak area at 0 min × 100% (2)

metabolic stability [2]: fairly stable
SMILES: Cc1nc(CO)c(C)nc1CO [1a, Liguzinediol]
+dP/dtmax ([1]; 1 μM): 1,836 ± 121 mmHg/s
HR ([1]; 1 μM): 186 ± 29 beat·min^−1
−dP/dtmax ([1]; 1 μM): −1,175 ± 125 mmHg/s
∆% +dP/dtmax ([1]; 1 μM): 9.4 ± 8.1%
∆% LVDP ([1]; 1 μM): 19.4 ± 11.0%
∆% −dP/dtmax ([1]; 1 μM): 11.1 ± 10.0%
LVDP ([1]; 1 μM): 60 ± 5 ^b mmHg
+dP/dtmax ([1]; 10 μM): 2,125 ± 242 ^bc mmHg/s
HR ([1]; 10 μM): 209 ± 21 beat·min^−1
−dP/dtmax ([1]; 10 μM): −1,371 ± 186 ^bc mmHg/s
∆% +dP/dtmax ([1]; 10 μM): 26.5 ± 13.4%
∆% LVDP ([1]; 10 μM): 45.6 ± 9.0%
∆% −dP/dtmax ([1]; 10 μM): 30.3 ± 0.3%
LVDP ([1]; 10 μM): 73 ± 4 ^bd mmHg
+dP/dtmax ([1]; 100 μM): 2,702 ± 287 ^bdf mmHg/s
HR ([1]; 100 μM): 193 ± 15 beat·min^−1
−dP/dtmax ([1]; 100 μM): −1,911 ± 200 ^bdf mmHg/s
∆% +dP/dtmax ([1]; 100 μM): 60.9 ± 17.3%
∆% LVDP ([1]; 100 μM): 76.3 ± 12.3%
∆% −dP/dtmax ([1]; 100 μM): 82.0 ± 27.9%
LVDP ([1]; 100 μM): 88 ± 3 ^bdf mmHg

Source: article PMC6270099, “Synthesis, Biological Evaluation, and Pharmacokinetic Study of Novel Liguzinediol Prodrugs” (Molecules, 2013)
